Experimental data: patent US20100240065A1, “Prolyl Hydroxylase Compositions and Methods of Use Thereof” (Boehringer Ingelheim International GmbH, priority 2009, published 2010)
Read-outs that look alike come from different tables or passages of the source.

Key:
[1] = tested on: recombinant rhesus HPH protein; assay: HPH enzyme activity assay, effect of cofactors and metal ions (isoform not given); type: biochemical, rhesus (Macaca mulatta)
[2] = biological target: T1, rhesus HPH3 (Macaca mulatta, UniProt H9FPE4); assay: HPH enzyme TR-FRET assay (VBC-recognition of hydroxylated HIF peptide), HPH3; type: biochemical; settings: inhibitory activity against rhesus HPH3
T1 construct: fused on or other part: C-terminal GST tag used for purification and removed with thrombin before the assay

[3] = biological target: rhesus HPH1 (Macaca mulatta, UniProt I2CX88); assay: biochemical
Protocol: (§1) The VBC protein complex was generated by co-expression of Glutathione S-Transferase-VHL (von Hippel Lindau), elongin B and elongin C in Escherichia coli followed by purification of the complex using glutathione affinity resin and size-exclusion chromatography. The HPH enzyme assay is conducted in the well of a 96- or 384-well plate. […] The time-resolved fluorescent signal (excitation at 330 nm; emission at 620 and 665 nm) is read on a plate reader after 1 h of incubation. The ratio of signal at 665 nm to 620 nm is used to calculate the amount of peptide interaction with GST-VBC as a measure of protein hydroxylation.
(§2) The activity of the HPH proteins was measured using an assay dependent upon VBC-recognition of a hydroxylated peptide. The VBC protein complex was generated by co-expression of Glutathione S-Transferase-VHL (von Hippel Lindau), elongin B and elongin C in Escherichia coli followed by purification of the complex using glutathione affinity resin and size-exclusion chromatography. The HPH enzyme assay is conducted in the well of a 96- or 384-well plate. […] The ratio of signal at 665 nm to 620 nm is used to calculate the amount of peptide interaction with GST-VBC as a measure of protein hydroxylation.

[4] = biological target: rhesus HPH2 (Macaca mulatta, UniProt I2CX88); settings: read-out: IC50 HPH2; inhibitory activity against rhesus HPH2
Protocol: as §1, §2

rhesus HPH1, sequence (I2CX88 1-426): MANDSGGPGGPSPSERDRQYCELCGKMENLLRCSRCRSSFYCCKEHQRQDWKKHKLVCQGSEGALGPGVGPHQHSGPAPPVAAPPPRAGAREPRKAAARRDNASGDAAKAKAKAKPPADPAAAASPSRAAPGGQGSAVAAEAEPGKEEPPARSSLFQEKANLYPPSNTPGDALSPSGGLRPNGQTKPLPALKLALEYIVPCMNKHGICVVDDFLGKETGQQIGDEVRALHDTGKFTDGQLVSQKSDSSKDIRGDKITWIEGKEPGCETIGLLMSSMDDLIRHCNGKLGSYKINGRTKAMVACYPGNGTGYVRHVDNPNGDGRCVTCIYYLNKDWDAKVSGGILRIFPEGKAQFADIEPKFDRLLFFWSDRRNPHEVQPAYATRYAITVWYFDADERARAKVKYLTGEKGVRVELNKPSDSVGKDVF
rhesus HPH2, sequence (I2CX88 1-426): as above

[Cl-].[Cl-].[Co+2] [CoCl2]
effect of addition on enzyme activity [1]: inhibited enzyme activity

NNc1nncc2ccccc12 [Hydralazine]
IC50 [2]: 54 µM | IC50 [3]: 400 µM

O=C(O)CNC(=O)C(=O)O [N-oxalylglycine]
IC50 [2]: 0.66 µM

O=C(O)CCC(=O)O [Succinate]
IC50 [4]: 380 µM | IC50 [2]: 80 µM | IC50 ([3]; read-out: IC50 HPH1, inhibitory activity against rhesus HPH1): 200 µM

[Fe+2] [ferrous iron]
effect of addition on enzyme activity ([1]; recombinant rhesus HPH, isoform not stated): increased the activity of the enzyme
